According to patent US8859232B2, “Genetically encoded photomanipulation of protein and peptide activity” (The University of North Carolina at Chapel Hill, priority 2009, dated 2014):

Test system: MEF cells expressing mVenus-tagged PA-Rac1
Assay: Inhibitor studies: localized activation of PA-Rac1 in inhibitor-treated MEF cells
Format: cell-based, mouse
Settings: Blebbistatin 1 μM, Y-27632 10 μM; for effect of inhibitor on PA-Rac1 light-induced protrusion: FIG. 6C; for effect of inhibitor on the ability of Rac1 to specify the direction of movement: FIG. 6D
Method: Inhibitor studies: MEF cells expressing mVenus-tagged PA-Rac1 were incubated with 1 μM myosin II inhibitor Blebbistatin, 1 μM MLCK inhibitor ML-7, or 10 μM ROCK inhibitor Y-27632 (Calbiochem). Cells underwent the cell shape changes previously described (Katsumi et al., J. Cell Biol. 158:153 (2002)) and then reached a stable state within 30 minutes. After this cells were irradiated with the 458 nm laser at a 10-μm spot to induce PA-Rac activation.
Protrusion/retraction analysis: Fluorescence images of MEF cells expressing mVenus-tagged PA-Rac1 and its mutants were masked based on intensity thresholding to produce binary images. Regions of protrusion were isolated by subtracting the binary image at a given time point from that at time 0. Conversely the binary images of retraction were obtained. Areas not part of protrusions or retractions, those that overlapped the time 0 image, were obtained by subtracting the above two images from that at time 0. Each binary image was assigned a different color: red=protrusion, blue=retraction, green=area overlapping with time 0, and white=background. These operations were carried out using MetaMorph software.
Polarity index calculation: To obtain the polarity index (cos θ) of the migrating MEF cells, X and Y coordinates were obtained for the centroid before movement (x0,y0), the centroid after movement (x1,y1), and for the center of the irradiation spot (x2,y2), using MetaMorph software. The cos and sin values of the angles were obtained using simple triangle calculations. First two angles were defined using an arbitrarily selected horizontal line θ1=angle between the arbitrary line and the line from (x0,y0) to (x1,y1), and θ2=angle between the arbitrary line and the line between (x0,y0) and (x2,y2). The cos used to characterize polarity (see FIG. 6) was obtained using the following formula: cos θ=cos(θ1−θ2)=cos θ1 cos θ2+sin θ1 sin θ2

Row | Compound | effect of inhibitor on PA-Rac1 light-induced protrusion | effect of inhibitor on the ability of Rac1 to specify the direction of movement
1 | Cc1ccc2c(c1)C(=O)C1(O)CCN(c3ccccc3)C1=N2 (stereo not shown) [Blebbistatin] | little effect | randomization of movement
2 | C[C@@H](N)[C@H]1CC[C@H](C(=O)Nc2ccncc2)CC1 [Y-27632] | strongly reduced protrusion | little effect
